Data reported in publication PMC9571063 (Molecules, 2022).

What was measured:
Test in all cases: KINOMEscan
Type in all cases: binding
Details in all cases: read-out: Percent Control
STK16 = molecular target: T1, STK16 (Homo sapiens, UniProt O75716)
T1 construct: purchased Eurofins DiscoverX KINOMEscan (scanMAX 468)

AKT3 = molecular target: T2, AKT3 (Homo sapiens, UniProt Q9Y243)
T2 construct: purchased Eurofins DiscoverX KINOMEscan (scanMAX 468)

MST1R = molecular target: T3, MST1R (Homo sapiens, UniProt Q04912)
T3 construct: purchased Eurofins DiscoverX KINOMEscan (scanMAX 468)

TSSK1B = molecular target: T4, TSSK1B (Homo sapiens, UniProt Q9BXA7)
T4 construct: purchased Eurofins DiscoverX KINOMEscan (scanMAX 468)

EGFR(L858R) = molecular target: T5, EGFR(L858R) (Homo sapiens, UniProt P00533, L858R)
T5 construct: purchased Eurofins DiscoverX KINOMEscan (scanMAX 468)

[1] = molecular target: T6, TYK2(JH1domain-catalytic) (Homo sapiens, UniProt P29597)
T6 construct: TYK2(JH1domain-catalytic); purchased Eurofins DiscoverX KINOMEscan (scanMAX 468)

TNK1 = molecular target: T7, TNK1 (Homo sapiens, UniProt Q13470)
T7 construct: purchased Eurofins DiscoverX KINOMEscan (scanMAX 468)

[2] = molecular target: T8, ABL1(H396P)-nonphosphorylated (Homo sapiens, UniProt P00519, H396P)
T8 construct: purchased Eurofins DiscoverX KINOMEscan (scanMAX 468)

TRKC = molecular target: T9, TRKC (Homo sapiens, UniProt Q16288)
T9 construct: purchased Eurofins DiscoverX KINOMEscan (scanMAX 468)

SGK = molecular target: T10, SGK (Homo sapiens, UniProt O00141)
T10 construct: purchased Eurofins DiscoverX KINOMEscan (scanMAX 468)

[3] = molecular target: T11, RPS6KA4(Kin.Dom.1-N-terminal) (Homo sapiens, UniProt O75676)
T11 construct: RPS6KA4(Kin.Dom.1-N-terminal); purchased Eurofins DiscoverX KINOMEscan (scanMAX 468)

BMPR2 = molecular target: T12, BMPR2 (Homo sapiens, UniProt Q13873)
T12 construct: purchased Eurofins DiscoverX KINOMEscan (scanMAX 468)

RAF1 = molecular target: T13, RAF1 (Homo sapiens, UniProt P04049)
T13 construct: purchased Eurofins DiscoverX KINOMEscan (scanMAX 468)
T13 sequence (P04049 whole entry): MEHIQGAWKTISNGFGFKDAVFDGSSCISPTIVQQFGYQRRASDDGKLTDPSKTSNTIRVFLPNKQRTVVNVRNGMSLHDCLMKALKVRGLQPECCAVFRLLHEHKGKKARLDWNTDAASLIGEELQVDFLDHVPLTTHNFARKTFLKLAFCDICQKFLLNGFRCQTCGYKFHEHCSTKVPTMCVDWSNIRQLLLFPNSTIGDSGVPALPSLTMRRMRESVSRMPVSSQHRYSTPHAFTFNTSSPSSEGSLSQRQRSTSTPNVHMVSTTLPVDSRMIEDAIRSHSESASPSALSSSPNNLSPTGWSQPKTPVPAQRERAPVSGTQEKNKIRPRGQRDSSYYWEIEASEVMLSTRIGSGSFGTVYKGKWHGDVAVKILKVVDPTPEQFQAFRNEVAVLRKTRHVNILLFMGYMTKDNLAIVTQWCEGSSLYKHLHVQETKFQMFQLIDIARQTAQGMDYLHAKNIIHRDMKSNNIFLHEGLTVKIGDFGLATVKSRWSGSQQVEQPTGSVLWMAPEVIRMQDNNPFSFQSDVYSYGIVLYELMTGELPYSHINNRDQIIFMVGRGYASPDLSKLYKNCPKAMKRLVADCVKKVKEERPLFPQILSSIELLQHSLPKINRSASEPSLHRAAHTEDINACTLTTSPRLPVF

IRAK4 = molecular target: T14, IRAK4 (Homo sapiens, UniProt Q9NWZ3)
T14 construct: purchased Eurofins DiscoverX KINOMEscan (scanMAX 468)

[4] = molecular target: T15, JAK3(JH1domain-catalytic) (Homo sapiens, UniProt P52333)
T15 construct: JAK3(JH1domain-catalytic); purchased Eurofins DiscoverX KINOMEscan (scanMAX 468)
T15 sequence (P52333 813-1124 limits assumed): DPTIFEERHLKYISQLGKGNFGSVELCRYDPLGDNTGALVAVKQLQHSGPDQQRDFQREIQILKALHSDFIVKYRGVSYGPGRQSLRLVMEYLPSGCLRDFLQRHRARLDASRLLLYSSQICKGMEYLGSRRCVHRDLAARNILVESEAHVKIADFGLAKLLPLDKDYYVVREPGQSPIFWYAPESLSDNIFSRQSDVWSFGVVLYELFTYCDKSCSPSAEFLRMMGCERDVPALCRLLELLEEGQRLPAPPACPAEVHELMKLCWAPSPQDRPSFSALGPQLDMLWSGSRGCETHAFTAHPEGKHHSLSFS

CSNK1A1 = molecular target: T16, CSNK1A1 (Homo sapiens, UniProt P48729)
T16 construct: purchased Eurofins DiscoverX KINOMEscan (scanMAX 468)

MARK4 = molecular target: T17, MARK4 (Homo sapiens, UniProt Q96L34)
T17 construct: purchased Eurofins DiscoverX KINOMEscan (scanMAX 468)

HUNK = molecular target: T18, HUNK (Homo sapiens, UniProt P57058)
T18 construct: purchased Eurofins DiscoverX KINOMEscan (scanMAX 468)

MAP3K1 = molecular target: T19, MAP3K1 (Homo sapiens, UniProt Q13233)
T19 construct: purchased Eurofins DiscoverX KINOMEscan (scanMAX 468)
T19 sequence (Q13233 whole entry): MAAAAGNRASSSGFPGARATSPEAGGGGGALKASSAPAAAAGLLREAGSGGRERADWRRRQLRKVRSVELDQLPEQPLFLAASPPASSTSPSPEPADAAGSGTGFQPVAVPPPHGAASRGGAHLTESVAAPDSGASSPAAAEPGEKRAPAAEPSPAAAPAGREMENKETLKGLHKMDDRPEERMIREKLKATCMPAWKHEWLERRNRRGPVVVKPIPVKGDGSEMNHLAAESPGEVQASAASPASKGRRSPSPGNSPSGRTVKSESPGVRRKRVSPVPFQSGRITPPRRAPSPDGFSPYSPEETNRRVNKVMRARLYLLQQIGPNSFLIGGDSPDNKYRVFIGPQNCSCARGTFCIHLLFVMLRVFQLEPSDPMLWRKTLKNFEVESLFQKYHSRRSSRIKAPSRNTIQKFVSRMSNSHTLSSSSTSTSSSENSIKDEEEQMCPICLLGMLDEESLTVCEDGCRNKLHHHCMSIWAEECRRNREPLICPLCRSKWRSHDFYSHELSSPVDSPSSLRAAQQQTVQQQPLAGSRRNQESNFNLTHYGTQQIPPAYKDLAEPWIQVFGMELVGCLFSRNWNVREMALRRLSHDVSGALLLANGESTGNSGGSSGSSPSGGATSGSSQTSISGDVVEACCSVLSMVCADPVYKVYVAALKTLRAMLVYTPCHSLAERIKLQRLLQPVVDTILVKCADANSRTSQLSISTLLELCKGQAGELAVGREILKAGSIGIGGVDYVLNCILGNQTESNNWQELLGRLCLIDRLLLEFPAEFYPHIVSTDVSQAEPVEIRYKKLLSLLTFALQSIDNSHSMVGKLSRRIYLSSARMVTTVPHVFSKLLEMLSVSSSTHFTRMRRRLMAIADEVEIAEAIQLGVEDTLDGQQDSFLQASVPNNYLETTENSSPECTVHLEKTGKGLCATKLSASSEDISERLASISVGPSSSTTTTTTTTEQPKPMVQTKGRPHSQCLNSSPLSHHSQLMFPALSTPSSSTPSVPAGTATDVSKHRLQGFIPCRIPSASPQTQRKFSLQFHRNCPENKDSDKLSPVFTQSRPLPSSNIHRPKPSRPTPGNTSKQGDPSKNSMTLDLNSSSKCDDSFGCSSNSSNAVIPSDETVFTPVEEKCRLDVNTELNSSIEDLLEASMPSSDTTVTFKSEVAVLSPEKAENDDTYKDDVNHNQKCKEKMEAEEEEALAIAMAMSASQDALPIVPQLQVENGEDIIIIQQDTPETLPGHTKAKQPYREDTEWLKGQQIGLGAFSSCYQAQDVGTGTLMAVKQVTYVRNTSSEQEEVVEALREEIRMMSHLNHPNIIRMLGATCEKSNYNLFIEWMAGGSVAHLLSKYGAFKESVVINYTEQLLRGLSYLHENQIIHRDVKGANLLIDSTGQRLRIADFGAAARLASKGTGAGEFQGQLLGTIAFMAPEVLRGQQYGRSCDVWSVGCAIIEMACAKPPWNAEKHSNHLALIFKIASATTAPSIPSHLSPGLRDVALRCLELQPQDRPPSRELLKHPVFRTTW

[5] = molecular target: T20, RSK3(Kin.Dom.2-C-terminal) (Homo sapiens, UniProt Q15349)
T20 construct: RSK3(Kin.Dom.2-C-terminal); purchased Eurofins DiscoverX KINOMEscan (scanMAX 468)

PDPK1 = molecular target: T21, PDPK1 (Homo sapiens, UniProt O15530)
T21 construct: purchased Eurofins DiscoverX KINOMEscan (scanMAX 468)

WNK2 = molecular target: T22, WNK2 (Homo sapiens, UniProt Q9Y3S1)
T22 construct: purchased Eurofins DiscoverX KINOMEscan (scanMAX 468)

BRK = molecular target: T23, BRK (Homo sapiens, UniProt Q13882)
T23 construct: purchased Eurofins DiscoverX KINOMEscan (scanMAX 468)

MRCKB = molecular target: T24, MRCKB (Homo sapiens, UniProt Q9Y5S2)
T24 construct: purchased Eurofins DiscoverX KINOMEscan (scanMAX 468)

[6] = molecular target: T25, ABL1(M351T)-phosphorylated (Homo sapiens, UniProt P00519, M351T)
T25 construct: purchased Eurofins DiscoverX KINOMEscan (scanMAX 468)

YSK1 = molecular target: T26, YSK1 (Homo sapiens, UniProt O00506)
T26 construct: purchased Eurofins (KINOMEscan, DiscoverX)

FAK = molecular target: T27, FAK (Homo sapiens, UniProt Q05397)
T27 construct: purchased Eurofins DiscoverX KINOMEscan (scanMAX 468)

RET(V804L) = molecular target: T28, RET(V804L) (Homo sapiens, UniProt P07949, V804L)
T28 construct: purchased Eurofins DiscoverX KINOMEscan (scanMAX 468)

KIT(V559D,V654A) = molecular target: T29, KIT(V559D,V654A) (Homo sapiens, UniProt P10721, V559D/V654A)
T29 construct: purchased Eurofins DiscoverX KINOMEscan (scanMAX 468)
T29 sequence (P10721 26-976 V559D/V654A): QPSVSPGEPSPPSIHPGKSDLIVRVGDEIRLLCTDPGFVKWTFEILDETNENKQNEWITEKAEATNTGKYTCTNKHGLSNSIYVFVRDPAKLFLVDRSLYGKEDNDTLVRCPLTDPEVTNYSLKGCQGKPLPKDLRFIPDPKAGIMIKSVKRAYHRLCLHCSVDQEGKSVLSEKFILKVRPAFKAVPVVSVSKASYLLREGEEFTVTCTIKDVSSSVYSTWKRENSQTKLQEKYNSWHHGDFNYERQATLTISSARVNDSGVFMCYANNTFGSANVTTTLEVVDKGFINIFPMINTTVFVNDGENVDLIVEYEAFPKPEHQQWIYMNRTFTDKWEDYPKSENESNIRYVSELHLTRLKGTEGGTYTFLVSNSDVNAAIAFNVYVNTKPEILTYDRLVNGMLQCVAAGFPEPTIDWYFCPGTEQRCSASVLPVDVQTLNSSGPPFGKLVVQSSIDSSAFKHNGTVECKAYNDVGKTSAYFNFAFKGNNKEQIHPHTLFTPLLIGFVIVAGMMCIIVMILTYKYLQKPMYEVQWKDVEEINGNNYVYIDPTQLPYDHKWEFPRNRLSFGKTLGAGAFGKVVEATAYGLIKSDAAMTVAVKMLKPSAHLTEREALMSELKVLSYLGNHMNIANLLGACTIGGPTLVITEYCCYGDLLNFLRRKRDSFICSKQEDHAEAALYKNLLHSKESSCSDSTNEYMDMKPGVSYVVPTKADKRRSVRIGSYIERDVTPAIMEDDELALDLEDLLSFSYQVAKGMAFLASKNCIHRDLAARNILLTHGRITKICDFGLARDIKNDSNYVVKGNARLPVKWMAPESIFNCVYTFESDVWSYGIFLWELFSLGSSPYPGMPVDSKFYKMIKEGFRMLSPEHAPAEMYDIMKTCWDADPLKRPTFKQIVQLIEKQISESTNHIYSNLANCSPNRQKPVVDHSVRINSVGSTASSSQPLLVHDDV

[7] = molecular target: T30, TYK2(JH2domain-pseudokinase) (Homo sapiens, UniProt P29597)
T30 construct: TYK2(JH2domain-pseudokinase); purchased Eurofins DiscoverX KINOMEscan (scanMAX 468)

p38-delta = molecular target: T31, p38-delta (Homo sapiens, UniProt O15264)
T31 construct: purchased Eurofins DiscoverX KINOMEscan (scanMAX 468)
T31 sequence (O15264 whole entry): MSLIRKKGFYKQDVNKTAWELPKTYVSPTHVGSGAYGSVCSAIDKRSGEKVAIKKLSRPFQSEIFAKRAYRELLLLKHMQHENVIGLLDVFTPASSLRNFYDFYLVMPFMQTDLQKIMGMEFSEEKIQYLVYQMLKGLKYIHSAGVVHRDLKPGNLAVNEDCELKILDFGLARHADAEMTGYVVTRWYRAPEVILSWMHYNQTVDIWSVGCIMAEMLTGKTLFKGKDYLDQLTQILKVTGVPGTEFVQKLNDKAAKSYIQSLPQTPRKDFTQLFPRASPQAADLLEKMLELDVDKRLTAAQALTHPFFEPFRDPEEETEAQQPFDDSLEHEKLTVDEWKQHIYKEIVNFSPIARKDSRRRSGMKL

BRSK2 = molecular target: T32, BRSK2 (Homo sapiens, UniProt Q8IWQ3)
T32 construct: purchased Eurofins DiscoverX KINOMEscan (scanMAX 468)
T32 sequence (Q8IWQ3 whole entry): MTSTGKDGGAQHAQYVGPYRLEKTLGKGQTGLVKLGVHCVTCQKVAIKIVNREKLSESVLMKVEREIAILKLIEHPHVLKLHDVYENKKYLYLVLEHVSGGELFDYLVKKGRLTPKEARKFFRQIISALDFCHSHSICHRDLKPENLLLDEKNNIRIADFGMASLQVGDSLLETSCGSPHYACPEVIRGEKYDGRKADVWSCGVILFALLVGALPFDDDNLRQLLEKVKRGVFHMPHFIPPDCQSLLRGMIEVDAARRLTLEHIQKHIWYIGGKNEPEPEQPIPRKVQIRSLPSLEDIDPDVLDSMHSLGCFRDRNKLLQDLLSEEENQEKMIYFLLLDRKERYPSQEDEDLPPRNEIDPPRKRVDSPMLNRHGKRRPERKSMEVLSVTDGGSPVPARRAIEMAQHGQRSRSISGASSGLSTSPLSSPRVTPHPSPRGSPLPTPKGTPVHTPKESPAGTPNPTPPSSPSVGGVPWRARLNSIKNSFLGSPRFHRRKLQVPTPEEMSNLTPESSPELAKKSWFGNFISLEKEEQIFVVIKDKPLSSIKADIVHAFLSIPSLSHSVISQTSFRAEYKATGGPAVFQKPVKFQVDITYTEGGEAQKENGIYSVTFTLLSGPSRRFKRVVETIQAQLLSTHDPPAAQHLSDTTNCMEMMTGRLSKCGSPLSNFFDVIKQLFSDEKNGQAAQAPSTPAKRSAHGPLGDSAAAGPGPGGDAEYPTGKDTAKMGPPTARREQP

CSNK1G3 = molecular target: T33, CSNK1G3 (Homo sapiens, UniProt Q9Y6M4)
T33 construct: purchased Eurofins DiscoverX KINOMEscan (scanMAX 468)

MAPKAPK5 = molecular target: T34, MAPKAPK5 (Homo sapiens, UniProt Q8IW41)
T34 construct: purchased Eurofins DiscoverX KINOMEscan (scanMAX 468)

LRRK2 = molecular target: T35, LRRK2 (Homo sapiens, UniProt Q5S007)
T35 construct: purchased Eurofins DiscoverX KINOMEscan (scanMAX 468)

GSK3A = molecular target: T36, GSK3A (Homo sapiens, UniProt P49840)
T36 construct: purchased Eurofins DiscoverX KINOMEscan (scanMAX 468)
T36 sequence (P49840 whole entry): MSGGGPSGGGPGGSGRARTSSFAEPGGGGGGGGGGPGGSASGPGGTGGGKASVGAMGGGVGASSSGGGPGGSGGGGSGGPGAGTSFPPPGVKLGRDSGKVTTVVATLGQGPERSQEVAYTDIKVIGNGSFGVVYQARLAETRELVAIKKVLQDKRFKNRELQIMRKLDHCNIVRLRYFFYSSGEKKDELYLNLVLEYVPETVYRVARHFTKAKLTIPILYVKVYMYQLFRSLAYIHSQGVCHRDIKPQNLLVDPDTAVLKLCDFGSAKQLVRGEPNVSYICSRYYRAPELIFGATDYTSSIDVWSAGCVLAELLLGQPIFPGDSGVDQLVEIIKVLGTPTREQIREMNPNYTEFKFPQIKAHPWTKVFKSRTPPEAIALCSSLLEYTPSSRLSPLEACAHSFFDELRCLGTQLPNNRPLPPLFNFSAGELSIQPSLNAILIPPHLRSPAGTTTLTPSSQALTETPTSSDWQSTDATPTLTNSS

CDK4 = molecular target: T37, CDK4 (Homo sapiens, UniProt P11802)
T37 construct: purchased Eurofins DiscoverX KINOMEscan (scanMAX 468)

PKN1 = molecular target: T38, PKN1 (Homo sapiens, UniProt Q16512)
T38 construct: purchased Eurofins DiscoverX KINOMEscan (scanMAX 468)

CAMK2B = molecular target: T39, CAMK2B (Homo sapiens, UniProt Q13554)
T39 construct: purchased Eurofins DiscoverX KINOMEscan (scanMAX 468)

DCAMKL2 = molecular target: T40, DCAMKL2 (Homo sapiens, UniProt Q8N568)
T40 construct: purchased Eurofins DiscoverX KINOMEscan (scanMAX 468)

Cc1ccc(-n2cc(COc3cccc4cnc(Nc5cccc(Cl)c5)nc34)nn2)c([N+](=O)[O-])c1 [DB18]
remaining binding at 1 µM (STK16): 41%
remaining binding at 1 µM (AKT3): 100%
remaining binding at 1 µM (MST1R): 100%
remaining binding at 1 µM (TSSK1B): 100%
remaining binding at 1 µM (EGFR(L858R)): 94%
remaining binding at 1 µM [1]: 99%
remaining binding at 1 µM (TNK1): 100%
remaining binding at 1 µM [2]: 96%
remaining binding at 1 µM (TRKC): 59%
remaining binding at 1 µM (SGK): 100%
remaining binding at 1 µM [3]: 100%
remaining binding at 1 µM (BMPR2): 100%
remaining binding at 1 µM (RAF1): 100%
remaining binding at 1 µM (IRAK4): 100%
remaining binding at 1 µM [4]: 93%
remaining binding at 1 µM (CSNK1A1): 94%
remaining binding at 1 µM (MARK4): 100%
remaining binding at 1 µM (HUNK): 90%
remaining binding at 1 µM (MAP3K1): 98%
remaining binding at 1 µM [5]: 100%
remaining binding at 1 µM (PDPK1): 92%
remaining binding at 1 µM (WNK2): 67%
remaining binding at 1 µM (BRK): 100%
remaining binding at 1 µM (MRCKB): 94%
remaining binding at 1 µM [6]: 99%
remaining binding at 1 µM (YSK1): 98%
remaining binding at 1 µM (FAK): 100%
remaining binding at 1 µM (RET(V804L)): 100%
remaining binding at 1 µM (KIT(V559D,V654A)): 100%
remaining binding at 1 µM [7]: 100%
remaining binding at 1 µM (p38-delta): 100%
remaining binding at 1 µM (BRSK2): 97%
remaining binding at 1 µM (CSNK1G3): 100%
remaining binding at 1 µM (MAPKAPK5): 99%
remaining binding at 1 µM (LRRK2): 100%
remaining binding at 1 µM (GSK3A): 100%
remaining binding at 1 µM (CDK4): 100%
remaining binding at 1 µM (PKN1): 100%
remaining binding at 1 µM (CAMK2B): 100%
remaining binding at 1 µM (DCAMKL2): 100%
